{"source": "patent US4150970A", "about": "“Growth regulator for plants” (Board of Trustees of Michigan State University, priority 1977, dated 1979)", "key": {"Solubility": {"test": "Solubility", "format": "physicochemical"}, "[1]": {"system": "Starbonnet rice seedlings", "test": "Dry weight, leaf area and water uptake of rice under two light intensities (Example XVI)", "format": "in vivo", "protocol": "Rice seed cv. IR-8, or Starbonnet was surface treated with 0.1 percent mercuric chloride and planted in 77 cc plastic cups containing vermiculite and watered with one-fourth Hoagland's nutrient solution containing 3 mM of nitrogen at pH 5.0. After 10 days, seedlings were transplanted to 220 cc specimen cups wrapped in aluminum foil and containing 180 cc of the same Hoagland's nutrient solution. Four seedlings were suspended in the solution with a sponge rubber disc. The plants were grown under a 8 h night at 25° C. and a 16 h day at 30° C. with 21 and 8 μwatts per cm^2 in the blue and red spectra respectively. In the test with varying light intensity the high light intensity was 30 13 and the low intensity was 15 and 8 μwatts per cm^2 for the blue and red spectra respectively. The nutrient solution was renewed every 2 or 3 days. After one week the plants were sorted for size and similar sized plants assigned to the same block for the experiment. Prior to the initiation of a test the plants in each cup were assigned treatment numbers by use of a random number table. […] Sixteen hours prior to a test the foil wrapped cups were tared, and filled with one-half Hoaglands solution containing 6 mM nitrogen. Eighteen μl of chloroform or chloroform containing 1.8 μg triacontanol were placed on 2 cm^2 of Whatman No. 1 filter papers, air dried and placed in the specimen cups. This concentration of 10 μg triacontanol/liter was used for all tests described in the following Examples except where specifically indicated to the contrary. Immediately prior to the test the cups were all brought up to 180 ml. including a set of cups without plants to measure evaporation.\nWater uptake was measured by weighing the cups after removal of the plants and subtracting the tare and the water evaporated. For tests continued for more than one day, the solution used was measured every 3 days and new Hoagland's added and the pH maintained at 5.0 with sulfuric acid.\nThe plants were disected at harvest into shoots and roots. The expanded leaves were cut at the ligule and the newest leaf at the point it entered the sheath. The surface area of expanded leaves were measured using a Lambda Model LI-3000 planimeter. The plants were dried to constant weight in an oven at 100° C. and the roots, expanded leaves, and sheaths were weighed separately.\nFourteen day old \"Starbonnet\" rice seedlings were prepared and treated with triacontanol as explained in Example IV above.\nThe increase in dry weight and leaf area and the water uptake of the rice seedlings treated with triacontanol under two different light intensities was determined. High light was 30 and 13 μwatts/cm^2 and low light 15 and 8 μwatts/cm^2 in the blue and red spectra respectively. The plants were exposed to these light conditions 36 hours prior to treatment. At zero time the plants under low light intensity weighed 26.0 mg with 4.41 cm^2 leaf area. The high light plants weighed 29.5 mg per plant with 4.01 cm^2 leaf area per plant. FIGS. 1, 2 and 3 of the accompanying drawings show the results of these tests. In each Figure, A=low light control; B=low light+triacontanol; C=high light control; and D=high light+triacontanol. Presented in tabular form, the data for FIGS. 1, 2 and 3 appears in Table XVI, as follows: […]"}, "Michigan 396 field corn": {"system": "Michigan 396 field corn", "test": "Single and multiple foliar applications on field corn (Example XII)", "format": "in vivo", "text": "(§1) Tests were run, under the conditions above described, to determine the response of \"Michigan 396\" field corn and \"Larker\" barley to single and multiple foliar applications of triacontanol at […]. Plants were one week old at time of first treatment and 25 days old at time or harvest. Table XII states the test results."}, "[2]": {"system": "Heinz 1350 tomato seedlings", "test": "Tomato seedlings in nutrient culture, two application methods (Table XIII)", "format": "in vivo", "text": "These tests were run to determine the response of \"Heinz 1350\" tomato seedlings to applications of triacontanol in nutrient culture, in two different application methods."}, "[3]": {"system": "Barley callus cell culture", "test": "Growth of barley callus cell culture (Example XIX)", "format": "cell-based, interspecific cross of Hordeum vulgare and Hordeum jubatum", "protocol": "(§2) Cell cultures were separately grown in disposable petri dishes.\n5. Barley (interspecific cross of Hordeum vulgare and Hordeum jubatum)\n(§3) The cultures were grown on the basic medium of mineral salts described by Linsmaier and Skoog (Physiol. Plant, […] (1965)). Vitamins and hormones varied for each tissue (Table X-1) to maintain the tissues in an undifferentiated state. For all of the tissues inositol was 100 mg/liter and agar 1%. Sucrose was 3% for all but the bean which was 2%.\n(§4) Callus was produced from pith for tobacco, potato and tomato. Bean callus was produced from hypocotyl sections and barley callus from immature ovarian tissue. Subcultures were maintained on the appropriate media.\n(§5) Stock solutions of triacontanol were prepared at a concentration of 100 μg/ml. The solvent used was glass distilled benzene. The lower concentrations were obtained by serial dilutions. Treatments were applied to 4.5 cm Whatman #1 filter paper disks in 100 μl aliquots. Controls received 100 μl of glass distilled benzene. The solvent was evaporated for approximately 15 minutes and the filter papers were then placed on the agar medium.\n(§6) Callus tissue was then broken into pieces of approximately the same size (10 mg) and placed in the petri dishes on the treated filter paper (one piece per dish). For experiments conducted in the light the intensity was approximately 2.0 microwatts/cm^2 -namometer. Fresh weight measurements were made after 12 days of growth."}, "[4]": {"system": "Tomato callus cell culture", "test": "Growth of tomato callus cell culture (Example XIX)", "format": "cell-based, Lycopersicon esculentum, var. marglobe", "protocol": "as §2\n2. Tomato (Lycopersicon esculentum, var. marglobe)\nas §3, §4, §5, §6"}, "Bean callus cell culture": {"system": "Bean callus cell culture", "test": "Growth of bean callus cell culture (Example XIX)", "format": "cell-based, Phaseolus vulgaris, var. seafarer", "protocol": "as §2\n4. Bean (Phaseolus vulgaris, var. seafarer)\nas §3, §4, §5, §6"}, "Larker barley": {"system": "Larker barley", "test": "Single and multiple foliar applications on barley (Example XII)", "format": "in vivo", "text": "as §1"}, "[5]": {"settings": "printed 10.0 g triacontanol, 12 days"}}}
{"smiles": "CCCCCCCCCCCCCCCCCCCCCCCCCCCCCCO", "note": "[Triacontanol, 1-triacontanol]", "values": [{"measurement": "solubility in alcohol, qualitative", "setting": "Solubility; alcohol", "value": "soluble in alcohol"}, {"measurement": "solubility in ether and benzene, qualitative", "setting": "Solubility; ether and benzene", "value": "very soluble in ether and benzene"}, {"measurement": "solubility in water, qualitative", "setting": "Solubility; water", "value": "relatively water insoluble"}, {"measurement": "solubility", "setting": "Solubility; water, read-out: solubility limit in water", "value": "~0.3", "unit": "µg/mL"}, {"measurement": "Dry Wt., Percent Increase from Zero Time", "setting": "[1]; high light, 4 hr", "value": 16, "unit": "%"}, {"measurement": "Leaf Area, Percent Increase from Zero Time", "setting": "[1]; high light, 4 hr", "value": 19, "unit": "%"}, {"measurement": "Water Uptake", "setting": "[1]; high light, 4 hr", "value": 192, "unit": "μl/cm^2 leaf area"}, {"measurement": "Dry Wt., Percent Increase from Zero Time", "setting": "[1]; high light, 8 hr", "value": 27, "unit": "%"}, {"measurement": "Leaf Area, Percent Increase from Zero Time", "setting": "[1]; high light, 8 hr", "value": 38, "unit": "%"}, {"measurement": "Water Uptake", "setting": "[1]; high light, 8 hr", "value": 351, "unit": "μl/cm^2 leaf area"}, {"measurement": "Dry Wt., Percent Increase from Zero Time", "setting": "[1]; high light, 16 hr", "value": 51, "unit": "%"}, {"measurement": "Leaf Area, Percent Increase from Zero Time", "setting": "[1]; high light, 16 hr", "value": 88, "unit": "%"}, {"measurement": "Water Uptake", "setting": "[1]; high light, 16 hr", "value": 649, "unit": "μl/cm^2 leaf area"}, {"measurement": "dry weight and leaf area gain under low light versus control under high light", "setting": "[1]; low light conditions", "value": "gained as much dry weight and leaf area as the control plants did when subjected to high light conditions"}, {"measurement": "Dry Wt., Percent Increase from Zero Time", "setting": "[1]; low light, 4 hr", "value": 10, "unit": "%"}, {"measurement": "Leaf Area, Percent Increase from Zero Time", "setting": "[1]; low light, 4 hr", "value": 7, "unit": "%"}, {"measurement": "Water Uptake", "setting": "[1]; low light, 4 hr", "value": 117, "unit": "μl/cm^2 leaf area"}, {"measurement": "Dry Wt., Percent Increase from Zero Time", "setting": "[1]; low light, 8 hr", "value": 23, "unit": "%"}, {"measurement": "Leaf Area, Percent Increase from Zero Time", "setting": "[1]; low light, 8 hr", "value": 31, "unit": "%"}, {"measurement": "Water Uptake", "setting": "[1]; low light, 8 hr", "value": 239, "unit": "μl/cm^2 leaf area"}, {"measurement": "Dry Wt., Percent Increase from Zero Time", "setting": "[1]; low light, 16 hr", "value": 45, "unit": "%"}, {"measurement": "Leaf Area, Percent Increase from Zero Time", "setting": "[1]; low light, 16 hr", "value": 64, "unit": "%"}, {"measurement": "Water Uptake", "setting": "[1]; low light, 16 hr", "value": 453, "unit": "μl/cm^2 leaf area"}, {"measurement": "Dry wt, Corn", "setting": "Michigan 396 field corn; treated at 7, 12 and 18 days", "value": 562, "unit": "mg/shoot"}, {"measurement": "Dry wt, Corn", "setting": "Michigan 396 field corn; treated at 7 and 12 days", "value": 542, "unit": "mg/shoot"}, {"measurement": "Dry wt, Corn", "setting": "Michigan 396 field corn; treated at 12 and 18 days", "value": 614, "unit": "mg/shoot"}, {"measurement": "Dry wt, Corn", "setting": "Michigan 396 field corn; treated at 7 days", "value": 548, "unit": "mg/shoot"}, {"measurement": "Dry wt, Corn", "setting": "Michigan 396 field corn; treated at 12 days", "value": 522, "unit": "mg/shoot"}, {"measurement": "Dry wt, Corn", "setting": "Michigan 396 field corn; treated at 18 days", "value": 486, "unit": "mg/shoot"}, {"measurement": "Dry wt", "setting": "[2]; filter paper, 0.01", "value": 382, "unit": "mg/seedling"}, {"measurement": "Dry wt", "setting": "[2]; filter paper, 0.10", "value": 430, "unit": "mg/seedling"}, {"measurement": "Dry wt", "setting": "[2]; foliar, 0.01", "value": 405, "unit": "mg/seedling"}, {"measurement": "Dry wt", "setting": "[2]; foliar, 0.10", "value": 407, "unit": "mg/seedling"}, {"measurement": "growth of in vitro cell cultures", "setting": "[3]; barley", "value": "significant increases in growth"}, {"measurement": "% of control", "setting": "[3]; [5]", "value": "167 % of control"}, {"measurement": "Fresh weight", "setting": "[3]; [5]", "value": 35.0}, {"measurement": "% of control", "setting": "[4]; [5]", "value": "140 % of control"}, {"measurement": "Fresh weight", "setting": "[4]; [5]", "value": 16.8}, {"measurement": "growth of in vitro cell cultures", "setting": "[4]; tomato", "value": "significant increases in growth"}, {"measurement": "growth of in vitro cell cultures", "setting": "Bean callus cell culture; bean", "value": "significant increases in growth"}, {"measurement": "% of control", "setting": "Bean callus cell culture; [5]", "value": "149 % of control"}, {"measurement": "Fresh weight", "setting": "Bean callus cell culture; [5]", "value": 19.8}, {"measurement": "Dry wt, Barley", "setting": "Larker barley; treated at 7, 12 and 18 days", "value": 210, "unit": "mg/shoot"}, {"measurement": "Dry wt, Barley", "setting": "Larker barley; treated at 7 and 12 days", "value": 206, "unit": "mg/shoot"}, {"measurement": "Dry wt, Barley", "setting": "Larker barley; treated at 12 and 18 days", "value": 214, "unit": "mg/shoot"}, {"measurement": "Dry wt, Barley", "setting": "Larker barley; treated at 7 days", "value": 205, "unit": "mg/shoot"}, {"measurement": "Dry wt, Barley", "setting": "Larker barley; treated at 12 days", "value": 197, "unit": "mg/shoot"}, {"measurement": "Dry wt, Barley", "setting": "Larker barley; treated at 18 days", "value": 193, "unit": "mg/shoot"}]}
